# Key:
# [1] = system: RERF-LC-MA (human lung cancer cell); experiment: MTS cell proliferation test, RERF-LC-MA (Embodiment 8); type: cell-based
# Protocol: (§1) Respectively, the S medicine test solution was prepared by dissolving the ((S,S,S) cis,cis-spiro[4,4]nonane-1,6-diamine)oxalatoplatinum(II) complex (compound 2; hereinafter, it is described as S medicine) into the dimethylsulfoxide (DMSO) with the concentration of 10 mg/ml and the R medicine test solution was prepared by dissolving the ((R,R,R)cis,cis-spiro[4,4]nonane-1,6-diamine) oxalatoplatinum(II) complex (compound 3; hereinafter, it is described as R medicine) into the dimethylsulfoxide (DMSO) with the concentration of 10 mg/ml.
# (§2) The test was performed by using A549 (human lung cancer cell), LU65A (human lung cancer cell), RERF-LC-MA (human lung cancer cell), LU99 (human lung cancer cell), H460 (human lung cancer cell), HCT116 (human colon cancer cell), HT-29 (human colon cancer cell), MKN-45 (human gastric cancer cell), MKN-1 (human gastric cancer cell), U937 (human lymphoma cell), KP-1N (human pancreas cancer cell) and B2452 (human mesotheliama cell) as the cancer cell.
# (§3) These cells were suspended in the each culture medium that the serum of 10% was added, and were dispensed in 96-well plate. And then, these were cultured in 5% CO2 at 37 degrees centigrade during a night. Next day, the S medicine test solution and the R medicine test solution were prepared in the culture medium to the various concentrations (5, 10, 20 μg/ml), and were dispensed into the plates that the cells were set preliminarily. And further, these were cultured in 5% CO2 at 37 degrees centigrade for three days.
# (§4) The cell proliferation after the medicine addition was measured on the 3rd day from the 1st day after the medicine addition by the MTS method (kit for cell proliferation test manufactured by Promega Company).
# (§5) The inhibition rate (%) of the cell proliferation was obtained from the measured MTS value by the following formula. Inhibition rate(%)=(1-MTS value of medicine addition group/MTS value of medicine non-addition group)×100
# (§6) Because the value which was obtained by the above-mentioned formula represents the inhibition rate of the cell proliferation, the higher the numerical value is, the higher the medicine effect is. It is desired that the one whose value is 50% or more has the medicine effect.
# [2] = system: LU65A (human lung cancer cell); experiment: MTS cell proliferation test, LU65A (Embodiment 8); type: cell-based
# Protocol: as §1, §2, §3, §4, §5, §6
# [3] = system: H460 (human lung cancer cell); experiment: MTS cell proliferation test, H460 (Embodiment 8); type: cell-based
# Protocol: as §1, §2, §3, §4, §5, §6
# [4] = system: tumor cells; experiment: MTS cell proliferation test, all cancer cells of Embodiment 8; type: cell-based, human; details: summary of Table 2 in words
# Protocol: as §1
# The test was performed by using A549 (human lung cancer cell), LU65A (human lung cancer cell), RERF-LC-MA (human lung cancer cell), LU99 (human lung cancer cell), H460 (human lung cancer cell), HCT116 (human colon cancer cell), HT-29 (human colon cancer cell), MKN-45 (human gastric cancer cell), MKN-1 (human gastric cancer cell), U937 (human lymphoma cell), KP-1N (human pancreas cancer cell) and B2452 (human mesotheliama cell) as the cancer cell. […]
# as §4
# The inhibition rate (%) of the cell proliferation was obtained from the measured MTS value by the following formula. […]
# [5] = system: U937 (human lymphoma cell); experiment: MTS cell proliferation test, U937 (Embodiment 8); type: cell-based
# Protocol: as §1, §2, §3, §4, §5, §6
# [6] = system: H2452 cell (human mesothelicana cell); experiment: MTS cell proliferation test, H2452 (Embodiment 8); type: cell-based
# Protocol: as §1, §2, §3, §4, §5, §6
# [7] = system: A549 (human lung cancer cell); experiment: MTS cell proliferation test, A549 (Embodiment 8); type: cell-based
# Protocol: as §1, §2, §3, §4, §5, §6
# [8] = system: MKN-1 (human gastric cancer cell); experiment: MTS cell proliferation test, MKN-1 (Embodiment 8); type: cell-based
# Protocol: as §1, §2, §3, §4, §5, §6
# [9] = system: HCT116 (human colon cancer cell); experiment: MTS cell proliferation test, HCT116 (Embodiment 8); type: cell-based
# Protocol: as §1, §2, §3, §4, §5, §6
# [10] = system: LU99 (human lung cancer cell); experiment: MTS cell proliferation test, LU99 (Embodiment 8); type: cell-based
# Protocol: as §1, §2, §3, §4, §5, §6
# [11] = system: HT-29 (human colon cancer cell); experiment: MTS cell proliferation test, HT-29 (Embodiment 8); type: cell-based
# Protocol: as §1, §2, §3, §4, §5, §6
# [12] = system: KP-1N (human pancreas cancer cell); experiment: MTS cell proliferation test, KP-1N (Embodiment 8); type: cell-based
# Protocol: as §1, §2, §3, §4, §5, §6
# [13] = system: MKN-45 (human gastric cancer cell); experiment: MTS cell proliferation test, MKN-45 (Embodiment 8); type: cell-based
# Protocol: as §1, §2, §3, §4, §5, §6
compound,measurement,setting,value
"NC1CCCC12CCCC2N.O=C1[O][Pt][O]C1=O [S medicine, ((S,S,S) cis,cis-spiro[4,4]nonane-1,6-diamine)oxalatoplatinum(II) complex]",Inhibition rate of cell proliferation after 3 days from medicine addition (%),[1]; 5 μg/ml,X (X: 0~25%)
same,Inhibition rate of cell proliferation after 3 days from medicine addition (%),[1]; 10 μg/ml,Δ (Δ: 26~50%)
same,Inhibition rate of cell proliferation after 3 days from medicine addition (%),[1]; 20 μg/ml,◯ (◯: 51~75%)
same,Inhibition rate of cell proliferation after 3 days from medicine addition (%),[2]; 5 μg/ml,◯ (◯: 51~75%)
same,Inhibition rate of cell proliferation after 3 days from medicine addition (%),[2]; 10 μg/ml,⊚ (⊚: 76~100%)
same,Inhibition rate of cell proliferation after 3 days from medicine addition (%),[2]; 20 μg/ml,⊚ (⊚: 76~100%)
same,Inhibition rate of cell proliferation after 3 days from medicine addition (%),"[3]; H460, 5 μg/ml",Δ (Δ: 26~50%)
same,Inhibition rate of cell proliferation after 3 days from medicine addition (%),"[3]; H460, 10 μg/ml",◯ (◯: 51~75%)
same,Inhibition rate of cell proliferation after 3 days from medicine addition (%),"[3]; H460, 20 μg/ml",⊚ (⊚: 76~100%)
same,medicine effect for the many tumor cells,[4],high medicine effect compared with the oxaliplatin
same,Inhibition rate of cell proliferation after 3 days from medicine addition (%),"[5]; U937, 5 μg/ml",⊚ (⊚: 76~100%)
same,Inhibition rate of cell proliferation after 3 days from medicine addition (%),"[5]; U937, 10 μg/ml",⊚ (⊚: 76~100%)
same,Inhibition rate of cell proliferation after 3 days from medicine addition (%),"[5]; U937, 20 μg/ml",⊚ (⊚: 76~100%)
same,Inhibition rate of cell proliferation after 3 days from medicine addition (%),"[6]; H2452, 5 μg/ml",X (X: 0~25%)
same,Inhibition rate of cell proliferation after 3 days from medicine addition (%),"[6]; H2452, 10 μg/ml",Δ (Δ: 26~50%)
same,Inhibition rate of cell proliferation after 3 days from medicine addition (%),"[6]; H2452, 20 μg/ml",Δ (Δ: 26~50%)
same,Inhibition rate of cell proliferation after 3 days from medicine addition (%),"[7]; A549, 5 μg/ml",X (X: 0~25%)
same,Inhibition rate of cell proliferation after 3 days from medicine addition (%),"[7]; A549, 10 μg/ml",◯ (◯: 51~75%)
same,Inhibition rate of cell proliferation after 3 days from medicine addition (%),"[7]; A549, 20 μg/ml",⊚ (⊚: 76~100%)
same,Inhibition rate of cell proliferation after 3 days from medicine addition (%),"[8]; MKN-1, 5 μg/ml",◯ (◯: 51~75%)
same,Inhibition rate of cell proliferation after 3 days from medicine addition (%),"[8]; MKN-1, 10 μg/ml",⊚ (⊚: 76~100%)
same,Inhibition rate of cell proliferation after 3 days from medicine addition (%),"[8]; MKN-1, 20 μg/ml",⊚ (⊚: 76~100%)
same,Inhibition rate of cell proliferation after 3 days from medicine addition (%),"[9]; HCT116, 5 μg/ml",◯ (◯: 51~75%)
same,Inhibition rate of cell proliferation after 3 days from medicine addition (%),"[9]; HCT116, 10 μg/ml",◯ (◯: 51~75%)
same,Inhibition rate of cell proliferation after 3 days from medicine addition (%),"[9]; HCT116, 20 μg/ml",◯ (◯: 51~75%)
same,Inhibition rate of cell proliferation after 3 days from medicine addition (%),"[10]; LU99, 5 μg/ml",◯ (◯: 51~75%)
same,Inhibition rate of cell proliferation after 3 days from medicine addition (%),"[10]; LU99, 10 μg/ml",⊚ (⊚: 76~100%)
same,Inhibition rate of cell proliferation after 3 days from medicine addition (%),"[10]; LU99, 20 μg/ml",⊚ (⊚: 76~100%)
same,Inhibition rate of cell proliferation after 3 days from medicine addition (%),"[11]; HT-29, 5 μg/ml",Δ (Δ: 26~50%)
same,Inhibition rate of cell proliferation after 3 days from medicine addition (%),"[11]; HT-29, 10 μg/ml",Δ (Δ: 26~50%)
same,Inhibition rate of cell proliferation after 3 days from medicine addition (%),"[11]; HT-29, 20 μg/ml",◯ (◯: 51~75%)
same,Inhibition rate of cell proliferation after 3 days from medicine addition (%),[12]; 5 μg/ml,Δ (Δ: 26~50%)
same,Inhibition rate of cell proliferation after 3 days from medicine addition (%),[12]; 10 μg/ml,◯ (◯: 51~75%)
same,Inhibition rate of cell proliferation after 3 days from medicine addition (%),[12]; 20 μg/ml,⊚ (⊚: 76~100%)
same,Inhibition rate of cell proliferation after 3 days from medicine addition (%),"[13]; MKN-45, 5 μg/ml",⊚ (⊚: 76~100%)
same,Inhibition rate of cell proliferation after 3 days from medicine addition (%),"[13]; MKN-45, 10 μg/ml",⊚ (⊚: 76~100%)
same,Inhibition rate of cell proliferation after 3 days from medicine addition (%),"[13]; MKN-45, 20 μg/ml",⊚ (⊚: 76~100%)

# — patent US8501977B2, “Platinum complex and pharmaceutical composition containing the same” (Unitech Co., Ltd., priority 2008, dated 2013)
